Results as given in paper PMC12169475 (ACS Medicinal Chemistry Letters, 2025).
Read-outs that look alike come from different tables or passages of the source. Ends that are not written are not given here.

Experiments:
[1] = system: A. baumannii NICD 15283 (C); parameters: key: S - Susceptible; R - Resistant; I – Intermediate; conditions: A. baumannii NICD 15283 clinical isolate; ref NICD; cited from earlier work
[2] = system: E. cloacae NICD 16103 (C); parameters: key: S - Susceptible; R - Resistant; I – Intermediate; conditions: E. cloacae NICD 16103 clinical isolate; ref NICD; cited from earlier work
[3] = system: E. cloacae NICD 16103; assay type: cell-based, Enterobacter cloacae; conditions: then MIC 20 h 37°C; for MIC after trypsin treatment: trypsin 0.15 U/mL pH 7.4 (picture: 1 mM), 1 h 37°C, inactivated 60°C 20 min
[4] = system: HaCat cells; conditions: previously reported, ref Van der Walt et al.; cited from earlier work
Experimental: The toxicity of the analogues was assessed against HaCat cells, which serve as a relevant model for the intended topical application of these peptides in burn wound care.

[5] = system: mammalian erythrocytes; conditions: previously reported, ref Van der Walt et al.; cited from earlier work
[6] = system: HepG2 cells; conditions: previously reported, ref Van der Walt et al.; cited from earlier work
[7] = system: E. coli ATCC 25922; conditions: for Modal MIC: E. coli ATCC 25922, cation-adjusted MHB, ~5 x 10^5 CFU/mL, 37°C 20 h, OD600, triplicate experiments in duplicate (n = 6); for Selectivity index (HaCat LC50 / MIC): E. coli ATCC 25922 over HaCat cells
Experimental: (§1) Antibacterial activity against a panel of standard laboratory strains and clinical isolates.
(§2) Antimicrobial activity was evaluated against a panel of Gram-negative bacteria maintained by H3D, University of Cape Town, consisting of six laboratory reference strains and two clinical isolates. Briefly, bacterial colonies from an LB agar plate were picked and cultured in cation-adjusted Mueller Hinton broth (MHB) at 37°C with 180 rpm shaking, overnight. Cultures were […]
(§3) back diluted to reach a starting optical density at 600 nm (OD600) of 0.1 and then diluted 100- […]
(§4) media down polypropylene 96-well plates. Inoculum was added at a 1:1 ratio resulting in a […]
(§5) (Suppl. Table S2). Plates were incubated at 37°C for 20 h and the OD600 determined. Minimum inhibition concentrations (MICs) were determined from a minimum of three biological repeats. […]
(§6) the background absorbance.
(§7) Caution! All bacterial work was conducted using appropriate biosafety level 2 (BSL-2) practices.

[8] = system: A. baumannii ATCC 19606; conditions: for Modal MIC: A. baumannii ATCC 19606, cation-adjusted MHB, ~5 x 10^5 CFU/mL, 37°C 20 h, OD600, n = 6; for Selectivity index (HaCat LC50 / MIC): A. baumannii ATCC 19606 over HaCat cells
Experimental: as §1, §2, §3, §4, §5, §6, §7
(§8) Clinical isolates and reference strains were handled in a biosafety cabinet with proper PPE to prevent exposure and contamination.

[9] = system: A. baumannii NICD 15283 (C); conditions: for Selectivity index (HaCat LC50 / MIC): A. baumannii NICD 15283 clinical isolate over HaCat cells; for Modal MIC: A. baumannii NICD 15283 clinical isolate, cation-adjusted MHB, ~5 x 10^5 CFU/mL, 37°C 20 h, OD600, n = 6
Experimental: as §1, §2, §3, §4, §5, §6, §7, §8

[10] = system: E. cloacae ATCC 700323; conditions: for Modal MIC: E. cloacae ATCC 700323, cation-adjusted MHB, ~5 x 10^5 CFU/mL, 37°C 20 h, OD600, n = 6; for Selectivity index (HaCat LC50 / MIC): E. cloacae ATCC 700323 over HaCat cells
Experimental: as §1, §2, §3, §4, §5, §6, §7, §8

[11] = system: E. cloacae NICD 16103 (C); conditions: for Selectivity index (HaCat LC50 / MIC): E. cloacae NICD 16103 clinical isolate over HaCat cells; for Modal MIC: E. cloacae NICD 16103 clinical isolate, cation-adjusted MHB, ~5 x 10^5 CFU/mL, 37°C 20 h, OD600, n = 6
Experimental: as §1, §2, §3, §4, §5, §6, §7, §8

[12] = system: K. pneumoniae ATCC BAA-1705; conditions: for Modal MIC: K. pneumoniae ATCC BAA-1705, cation-adjusted MHB, ~5 x 10^5 CFU/mL, 37°C 20 h, OD600, n = 6; for Selectivity index (HaCat LC50 / MIC): K. pneumoniae ATCC BAA-1705 over HaCat cells
Experimental: as §1, §2, §3, §4, §5, §6, §7, §8

[13] = system: P. aeruginosa PAO1; conditions: for Modal MIC: P. aeruginosa PAO1, cation-adjusted MHB, ~5 x 10^5 CFU/mL, 37°C 20 h, OD600, n = 6; for Selectivity index (HaCat LC50 / MIC): P. aeruginosa PAO1 over HaCat cells
Experimental: as §1, §2, §3, §4, §5, §6, §7, §8

[14] = system: HaCat cells; assay: In vitro cytotoxicity screening against epidermal HaCat cells (MTT); conditions: 24 h exposure in total (21 h + 3 h MTT), OD570, three independent experiments in duplicate (n = 6)
[15] = system: E. coli ATCC 700928; conditions: for Modal MIC: E. coli ATCC 700928, cation-adjusted MHB, ~5 x 10^5 CFU/mL, 37°C 20 h, OD600, n = 6; for Selectivity index (HaCat LC50 / MIC): E. coli ATCC 700928 over HaCat cells
Experimental: as §1, §2, §3, §4, §5, §6, §7, §8

CN(C)[C@@H]1C(O)=C(C(N)=O)C(=O)[C@@]2(O)C(O)=C3C(=O)c4c(O)cccc4[C@@](C)(O)[C@H]3C[C@@H]12 [Tetracycline]
Antimicrobial susceptibility profile [1]: R | Antimicrobial susceptibility profile [2]: R

NC[C@H]1O[C@H](O[C@H]2[C@H](O)[C@@H](O[C@H]3O[C@H](CO)[C@@H](O)[C@H](N)[C@H]3O)[C@H](N)C[C@@H]2N)[C@H](N)C[C@@H]1O [Tobramycin]
Antimicrobial susceptibility profile [1]: R | Antimicrobial susceptibility profile [2]: R

GKVWDWIKSTAKKLWN-NH2 [Opis16a]
MIC in FCS (20%) ([3]; peptide preincubated in 20% FCS 1 h at 37°C): 64 µg/mL | MIC after trypsin treatment [3]: > 32 µg/mL | HaCat toxicity LC50 + SD [4]: 311 ± 12 µg/mL | HC50 [5]: > 256 µg/mL | LC50 [6]: 118 ± 8 µg/mL

GKVWKWIKSTAKKLWN-NH2 [Opis16aD5K]
Modal MIC [7]: 16 µg/mL | Modal MIC [8]: 8 µg/mL | Selectivity index (HaCat LC50 / MIC) [8]: 18.5 | Selectivity index (HaCat LC50 / MIC) [9]: 18.5 | Modal MIC [9]: 8 µg/mL | Modal MIC [10]: 16 µg/mL | Selectivity index (HaCat LC50 / MIC) [10]: 9.27 | Selectivity index (HaCat LC50 / MIC) [11]: 18.5 | Modal MIC [11]: 8 µg/mL | Modal MIC [12]: 16 µg/mL | Selectivity index (HaCat LC50 / MIC) [12]: 9.27 | Modal MIC [13]: 8 µg/mL | Selectivity index (HaCat LC50 / MIC) [13]: 18.5 | HaCat toxicity LC50 + SD [14]: 148 ± 6 µg/mL

GKVWKWIKSTARRLWN-NH2 [Opis16aCterKR]
Modal MIC [7]: 8 (8×) μg/mL | Selectivity index (HaCat LC50 / MIC) [7]: 22.6 | Modal MIC [8]: 4 µg/mL | Selectivity index (HaCat LC50 / MIC) [8]: 45.2 | Selectivity index (HaCat LC50 / MIC) [9]: 22.6 | Modal MIC [9]: 8 µg/mL | Modal MIC [10]: 8 (8×) μg/mL | Selectivity index (HaCat LC50 / MIC) [10]: 22.6 | Selectivity index (HaCat LC50 / MIC) [11]: 45.2 | Modal MIC [11]: 4 (4×) μg/mL | Modal MIC [15]: 4 µg/mL | Selectivity index (HaCat LC50 / MIC) [15]: 45.2 | Modal MIC [12]: 8 µg/mL | Selectivity index (HaCat LC50 / MIC) [12]: 22.6 | Modal MIC [13]: 4 µg/mL | Selectivity index (HaCat LC50 / MIC) [13]: 45.2 | MIC after trypsin treatment [3]: > 32 µg/mL | HaCat toxicity LC50 + SD [14]: 181 ± 8 µg/mL

GRVWRWIKSTAKKLWN-NH2 [Opis16aNterKR]
Modal MIC [7]: 8 (8×) μg/mL | Selectivity index (HaCat LC50 / MIC) [7]: 17.3 | Modal MIC [8]: 4 µg/mL | Selectivity index (HaCat LC50 / MIC) [8]: 34.6 | Selectivity index (HaCat LC50 / MIC) [9]: 17.3 | Modal MIC [9]: 8 µg/mL | Modal MIC [10]: 16 µg/mL | Selectivity index (HaCat LC50 / MIC) [10]: 8.64 | Selectivity index (HaCat LC50 / MIC) [11]: 17.3 | Modal MIC [11]: 8 µg/mL | Modal MIC [15]: 4 µg/mL | Selectivity index (HaCat LC50 / MIC) [15]: 34.6 | Modal MIC [12]: 16 µg/mL | Selectivity index (HaCat LC50 / MIC) [12]: 8.64 | Modal MIC [13]: 4 µg/mL | Selectivity index (HaCat LC50 / MIC) [13]: 34.6 | HaCat toxicity LC50 + SD [14]: 138 ± 14 µg/mL

GRVWRWIRSTARRLWN-NH2 [Opis16aKR]
Modal MIC [7]: 8 (8×) μg/mL | Selectivity index (HaCat LC50 / MIC) [7]: 16.4 | Modal MIC [8]: 4 µg/mL | Selectivity index (HaCat LC50 / MIC) [8]: 32.9 | Selectivity index (HaCat LC50 / MIC) [9]: 16.4 | Modal MIC [9]: 8 µg/mL | Modal MIC [10]: 8 (8×) μg/mL | Selectivity index (HaCat LC50 / MIC) [11]: 32.9 | Modal MIC [11]: 4 (4×) μg/mL | Modal MIC [15]: 4 µg/mL | Selectivity index (HaCat LC50 / MIC) [15]: 32.9 | Modal MIC [12]: 16 µg/mL | Selectivity index (HaCat LC50 / MIC) [12]: 8.21 | Modal MIC [13]: 4 µg/mL | Selectivity index (HaCat LC50 / MIC) [13]: 32.9 | HaCat toxicity LC50 + SD [14]: 131 ± 5 µg/mL

Polymyxin B [reference compound]
Modal MIC [7]: 0.25 µg/mL | Modal MIC [8]: 1 µg/mL | Modal MIC [9]: 1 µg/mL | Modal MIC [10]: 0.25 µg/mL | Modal MIC [15]: 0.5 µg/mL | Modal MIC [12]: 0.5 µg/mL
